Key:
[1] = system: uterine growth in ovariectomized estradiol-treated rats; assay: Antiuterotropic activity in the rat (uterine weight, epithelial height); format: in vivo; conditions: for Functional antiestrogenic effect (uterine weight gain, epithelial cell height): 3 days
Text: Compounds with estrogenic activity induce uterine growth, resulting in an increase in uterine weight. They also induce a characteristic change of the appearance of the endometrial epithelium as indicated by an increase in epithelial height. PR modulators counteract estrogenic activity by inhibiting uterine weight gain and epithelial cell proliferation. This effect is sometimes referred to as “functional antiestrogenic” effect.
To test for antiuterotropic activity of the most preferred progestin according to the present invention, i.e., compound ((+)-1), ovariectormized rats are treated for 3 days with 0.3 μg/kg/d estradiol (E2) and in addition with increasing doses of ((+)-1) (cf. FIG. 4). Each test group shown in FIG. 4 consists of 10 rats, with the exception of one group (cf. FIG. 4, bottom diagram, 150 μg/kg of ((+)-1)), indicated by “#”), which consists of nine rats.
Changes in uterine weight, luminal epithelial height and the status of cell proliferation and keratinization of the vaginal smear servs as parameters for estrogenic activity. In combination with ((+)-1), decreases in estrogen-stimulated uterine weight gain and luminal epithelial height are parameters for antiestrogenic activity (cf. FIG. 4).
For the reference group (estradiol (E2)-treated), stimulation of the uterine weight and the luminal epithelial height in comparison to the vehicle control was calculated as follows: […]
In the antiestrogen assay, inhibition of uterine weight or luminal epithelial height in comparison to the effect seen with the reference compound (estradiol) was calculated as follows: […]
For statistical analysis, the 95% confidence interval was calculated using a software which was developed by the Biostatistical Department of Schering AG. The asterisks indicate a significant difference (p<0.05).

[2] = molecular target: T1, mineralocorticoid receptor (MR) (Homo sapiens, UniProt P08235); assay: Binding to the mineralocorticoid receptor in vitro
T1 sequence (P08235 1-984): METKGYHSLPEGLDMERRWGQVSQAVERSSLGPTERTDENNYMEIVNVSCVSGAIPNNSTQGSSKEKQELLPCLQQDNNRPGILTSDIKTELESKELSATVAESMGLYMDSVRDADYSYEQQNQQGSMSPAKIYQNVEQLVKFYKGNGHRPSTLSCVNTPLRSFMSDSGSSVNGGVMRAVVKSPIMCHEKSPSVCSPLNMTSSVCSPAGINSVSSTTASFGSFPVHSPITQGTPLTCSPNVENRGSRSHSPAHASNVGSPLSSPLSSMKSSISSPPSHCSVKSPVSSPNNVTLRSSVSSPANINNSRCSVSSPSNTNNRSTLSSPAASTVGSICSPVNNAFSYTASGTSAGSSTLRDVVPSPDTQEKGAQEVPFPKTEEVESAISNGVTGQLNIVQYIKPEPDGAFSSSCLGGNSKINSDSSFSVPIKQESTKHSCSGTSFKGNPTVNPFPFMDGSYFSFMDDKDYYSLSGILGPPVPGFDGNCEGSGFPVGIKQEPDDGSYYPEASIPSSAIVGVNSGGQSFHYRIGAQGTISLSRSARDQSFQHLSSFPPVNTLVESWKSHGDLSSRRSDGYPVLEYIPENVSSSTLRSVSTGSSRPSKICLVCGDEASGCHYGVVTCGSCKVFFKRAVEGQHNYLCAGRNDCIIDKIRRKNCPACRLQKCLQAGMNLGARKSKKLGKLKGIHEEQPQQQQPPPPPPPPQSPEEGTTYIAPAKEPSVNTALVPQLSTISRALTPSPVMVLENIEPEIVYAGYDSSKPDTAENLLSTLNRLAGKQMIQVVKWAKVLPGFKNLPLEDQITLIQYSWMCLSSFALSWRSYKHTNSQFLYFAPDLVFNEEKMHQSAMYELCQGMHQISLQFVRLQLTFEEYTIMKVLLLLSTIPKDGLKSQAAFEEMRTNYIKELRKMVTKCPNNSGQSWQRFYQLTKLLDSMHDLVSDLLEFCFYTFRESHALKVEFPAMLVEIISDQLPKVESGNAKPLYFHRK

androgen receptor (AR) = molecular target: T2, androgen receptor (AR) (Homo sapiens, UniProt P10275); assay: Binding affinity for the androgen receptor
T2 sequence (P10275 1-920): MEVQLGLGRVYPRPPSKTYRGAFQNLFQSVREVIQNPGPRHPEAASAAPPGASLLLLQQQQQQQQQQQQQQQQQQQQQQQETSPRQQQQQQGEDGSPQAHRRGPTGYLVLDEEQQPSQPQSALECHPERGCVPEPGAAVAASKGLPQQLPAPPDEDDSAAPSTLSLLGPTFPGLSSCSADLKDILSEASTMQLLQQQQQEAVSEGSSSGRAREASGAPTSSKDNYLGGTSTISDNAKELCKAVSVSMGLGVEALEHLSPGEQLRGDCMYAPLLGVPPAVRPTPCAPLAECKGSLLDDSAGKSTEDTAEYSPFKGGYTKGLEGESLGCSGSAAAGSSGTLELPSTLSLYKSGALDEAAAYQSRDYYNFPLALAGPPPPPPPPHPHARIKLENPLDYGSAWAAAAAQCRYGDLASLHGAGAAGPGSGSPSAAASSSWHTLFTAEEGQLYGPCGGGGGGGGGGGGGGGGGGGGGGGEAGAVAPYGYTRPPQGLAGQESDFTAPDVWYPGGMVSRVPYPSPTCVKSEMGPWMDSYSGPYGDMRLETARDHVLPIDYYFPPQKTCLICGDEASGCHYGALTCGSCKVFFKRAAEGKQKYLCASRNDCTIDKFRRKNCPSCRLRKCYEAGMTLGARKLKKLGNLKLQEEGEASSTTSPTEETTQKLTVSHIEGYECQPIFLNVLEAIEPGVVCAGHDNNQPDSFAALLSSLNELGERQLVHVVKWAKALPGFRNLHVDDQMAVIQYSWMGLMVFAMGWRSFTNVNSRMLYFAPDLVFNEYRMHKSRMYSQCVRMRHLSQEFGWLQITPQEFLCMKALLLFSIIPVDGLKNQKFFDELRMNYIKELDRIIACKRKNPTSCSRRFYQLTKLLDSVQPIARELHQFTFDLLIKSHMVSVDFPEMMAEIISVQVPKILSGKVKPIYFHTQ

Q: `O=C1OCc2cc(NC(=O)C(O)(CC3(c4cc(C(F)(F)F)ccc4F)CC3)C(F)(F)F)ccc21` (single isomer, unassigned; (+)) [((+)-1), (+)-5-{2-hydroxy-3-[1-(2-fluoro-5-trifluoromethylphenyl)-cyclopropyl]-2-trifluoromethyl-propionylamino}-phthalide] was tested. Which “Functional antiestrogenic effect (uterine weight gain, epithelial cell height)” value ([1]; 5 μg/kg/d with estradiol) did it give?
A: The value was “submaximum effect”.

Q: What about the “Functional antiestrogenic effect (uterine weight gain, epithelial cell height)” value ([1]; 15 μg/kg/d with estradiol) of the same molecule?
A: The value was “Maximum effect”.

Q: What about the “Functional antiestrogenic effect, in words” value ([1]; in combination with estradiol, FIG. 4) of the same molecule?
A: Its value is “strong functional antiestrogenic effect”.

Q: What about the “Affinity for the mineralocorticoid receptor (MR)” value [2] of the same molecule?
A: The value was “negligible affinity”.

Q: What about the “Binding affinity for the androgen receptor (AR)” value (androgen receptor (AR)) of the same molecule?
A: The value was “moderate binding affinity”.

Reference: patent publication US7388006B2, “Non-steroidal progesting” (Bayer Schering Pharma AG, priority 2002, dated 2008)
